In patent publication US9850219B1, “Phenothiazine derivatives and methods of use thereof” (Acenda Pharma, Inc., priority 2016, dated 2017):

Key:
MDA-MB-231 = experiment: Cytotoxicity, sulforhodamine B (SRB) assay, MDA-MB-231; assay type: cell-based, human; conditions: MDA-MB-231, Breast, 48 h
Source text: (§1) Human non-small cell lung cancer (NSCLC) cell lines (e.g., A549, H441GL and H1299), colon cancer cell lines (e.g., HCT116 and DLD1), breast cancer cell lines (e.g., MCF7 and MDA-MB-231), and pancreatic cancer cell lines (e.g., PANC-1 and SUIT-2) were used in cytotoxicity studies. These NSCLC cell lines have intrinsic resistance to epidermal growth factor receptor (EGFR) inhibitors, e.g., gefitinib. A549 and H441GL are EGFR-wild type adenocarcinoma cell lines. H1299 is an EGFR-wild type large cell carcinoma cell line. HCT116 and DLD1 are metastatic colon cell lines. MCF7 is a hormone-responsive breast cancer cell line. MDA-MB-231 is a triple-negative breast cancer cell line. PANC-1 is a metastatic adenocarcinoma cell line. SUIT-2 is a pancreatic ductal adenocarcinoma cell line.
(§2) All cell lines were grown and maintained in RPMI medium supplemented with 10% fetal bovine serum (FBS, Invitrogen), 2 mM L-glutamine, 100 U/mL penicillin, and 100 μg/mL streptomycin. For cell the culture experiment, stock solution (10 mM) of each test compound was dissolved in dimethyl sulfoxide (DMSO; Sigma).
(§3) Cells were plated in 96-well plates at a density of 2000 cells per well in triplicate. The cells in each well were treated on the third day (to ensure proper plating efficiency and vitality) with different concentrations (0-50 μM) of each test compound for 48 h.
(§4) Cell viability was assessed using the sulforhodamine B (SRB) assay. The medium was discarded, and the adherent cells were fixed by 100 μL of cold 10% trichloroacetic acid (w/v) in each well for 1 h at 4° C. After fixation, cells were stained with 100 μL/well of 0.4% (w/v, in 1% acetic acid) SRB solution for 30 min at room temperature, and then washed 5 times with 1% acetic acid. After air-drying, 100 μL of 10 mM Tris base was added to each well and the absorbance was read at 530 nm. Cytotoxicity is expressed as the percent of cells in drug treated wells relative to number of cells in the solvent only control (set to 100%). Each experiment was performed independently in triplicate and cytotoxicity IC50 value of each test compound was calculated from cytotoxicity data obtained at various concentrations.

H441GL = experiment: Cytotoxicity, sulforhodamine B (SRB) assay, H441GL; assay type: cell-based, Human; conditions: 48 h, NA indicates no activity
Source text: as §1, with “These NSCLC cell lines have intrinsic resistance to epidermal growth factor receptor (EGFR) inhibitors, e.g., gefitinib.” left out
as §2, §3, §4

PANC-1 = experiment: Cytotoxicity, sulforhodamine B (SRB) assay, PANC-1; assay type: cell-based, human; conditions: PANC-1, Pancreas, 48 h, NA = no activity
Source text: as §1, §2, §3, §4

MCF7 = experiment: Cytotoxicity, sulforhodamine B (SRB) assay, MCF7; assay type: cell-based, human; conditions: MCF7, Breast, 48 h
Source text: as §1, §2, §3, §4

SUIT-2 = experiment: Cytotoxicity, sulforhodamine B (SRB) assay, SUIT-2; assay type: cell-based, human; conditions: SUIT-2, Pancreas, 48 h
Source text: as §1, §2, §3, §4

lung cancer cells = experiment: Cytotoxicity SRB assay, summary of Table 2; assay type: cell-based, Human; conditions: summary in words of Table 2
Source text: as §1, §3, §4
NA indicates no activity.

A549 = experiment: Cytotoxicity, sulforhodamine B (SRB) assay, A549; assay type: cell-based, Human; conditions: A549, 48 h, NA indicates no activity
Source text: as §1, with “These NSCLC cell lines have intrinsic resistance to epidermal growth factor receptor (EGFR) inhibitors, e.g., gefitinib.” left out
as §2, §3, §4

H441GL cells [1] = experiment: Study 2: tumor size in mouse lung cancer model; assay type: in vivo, NOD/SCID mice; conditions: Study 2, 0.0127 mmol/kg daily, i.p.; for Tumor Size [Fold Change from Week 3 (Mean ± SD, n = 4)] Week 3: Week 3 (baseline, start of treatment)
Method: (§5) H441GL cells (1×10^6 cells in 100 μL phosphate-buffered saline/injection) were subcutaneously injected into the right flank of NOD/SCID mice (female, 4-6 weeks old). Mice were allowed 2 weeks for tumor growth. On the first day of Week 3 post injection, tumor-bearing mice were randomly divided into control group (DMSO vehicle, intraperitoneal (i.p.) injection) and test compound treatment groups (5 mg/kg/day, 5 days/week, i.p. injection). Over the period of 10 weeks, tumorigenesis in both groups was measured using a caliper on a weekly basis. The change in tumor size was expressed as in fold change from Week 3. In this study body weight of each mouse was also recorded at the end of each study week.
In this study, the daily dose was 0.0127 mmol/kg instead of 5 mg/kg.

H441GL cells [2] = experiment: Study 1: tumor size in mouse lung cancer model; assay type: in vivo, NOD/SCID mice; conditions: Study 1, 5 mg/kg/day, 5 days/week, i.p.; for Tumor Size [Fold Change from Week 3 (Mean ± SD, n = 4)] Week 3: Week 3 (baseline, start of treatment)
Method: as §5

H1299 = experiment: Cytotoxicity, sulforhodamine B (SRB) assay, H1299; assay type: cell-based; conditions: Homo sapiens, NCI-H1299, H1299, 48 h
Source text: as §1, with “These NSCLC cell lines have intrinsic resistance to epidermal growth factor receptor (EGFR) inhibitors, e.g., gefitinib.” left out
as §2, §3, §4

Compound | IC50 (MDA-MB-231) | IC50 (H441GL) | IC50 (PANC-1) | IC50 (MCF7) | IC50 (SUIT-2) | inhibition of cell proliferation of lung cancer cells (lung cancer cells) | IC50 (A549) | IC50 (H441GL; Homo sapiens) | IC50 (A549; Homo sapiens) | other results
COCCOCCOCCN1CCN(CCCN2c3ccccc3Sc3ccc(Cl)cc32)CC1 [Compound 4-1a] | 11.9 µM | 13.2 µM | 12.3 µM | 12.8 µM | 13.2 µM | inhibit cell proliferation | 32.5 µM |  |  | 
COCCOCCOCCOCCOCCOCCN1CCN(CCCN2c3ccccc3Sc3ccc(Cl)cc32)CC1 [Compound 4-2a] | 18.1 µM | 9.1 µM | 13.1 µM | 13.2 µM | 13.5 µM | inhibit cell proliferation | 10.9 µM |  |  | Tumor Size [Fold Change from Week 3 (Mean ± SD, n = 4)] Week 3 (H441GL cells [1]): 1 ± 0 Fold Change; Tumor Size [Fold Change from Week 3 (Mean ± SD, n = 4)] Week 9 (H441GL cells [1]): 10.3 ± 1.6 Fold Change; Tumor Size [Fold Change from Week 3 (Mean ± SD, n = 4)] Week 13 (H441GL cells [1]): 25.6 ± 5.1 Fold Change
COCCOCCOCCOCCOCCOCCOCCOCCOCCOCCOCCOCCN1CCN(CCCN2c3ccccc3Sc3ccc(Cl)cc32)CC1 [Compound 4-3a] | 15.6 µM | 12.7 µM | 7.1 µM | 10 µM | 25.4 µM | inhibit cell proliferation | 11.9 µM |  |  | Tumor Size [Fold Change from Week 3 (Mean ± SD, n = 4)] Week 3 (H441GL cells [1]): 1 ± 0 Fold Change; Tumor Size [Fold Change from Week 3 (Mean ± SD, n = 4)] Week 9 (H441GL cells [1]): 12.5 ± 1.5 Fold Change; Tumor Size [Fold Change from Week 3 (Mean ± SD, n = 4)] Week 13 (H441GL cells [1]): 32.6 ± 4.3 Fold Change
COCCOCCOCCOCCOCCOCCOCCOCCOCCOCCOCCOCCOCCOCCOCCOCCN1CCN(CCCN2c3ccccc3Sc3ccc(Cl)cc32)CC1 [Compound 4-4a] |  | 12.9 µM |  |  |  | inhibit cell proliferation | 20.2 µM |  |  | 
COCCOCCOCCOCCOCCOCCOCCOCCOCCOCCOCCOCCOCCOCCOCCOCCN1CCN(CCCN2c3ccccc3Sc3ccc(C(F)(F)F)cc32)CC1 [Compound 4-4b] |  | 36.4 µM |  |  |  |  |  |  |  | 
COCCOCCOCCOC(=O)N1CCN(CCCN2c3ccccc3Sc3ccc(Cl)cc32)CC1 [Compound 5-1a, NDP-CO—O—[CH2CH2O]3—CH3] | 22.2 µM | 16 µM | 6.7 µM | 15.5 µM | 18.6 µM | inhibit cell proliferation | 15.7 µM |  |  | Tumor Size [Fold Change from Week 3 (Mean ± SD, n = 4)] Week 3 (H441GL cells [2]): 1 ± 0 Fold Change; Tumor Size [Fold Change from Week 3 (Mean ± SD, n = 4)] Week 9 (H441GL cells [2]): 24.9 ± 4.3 Fold Change; Tumor Size [Fold Change from Week 3 (Mean ± SD, n = 4)] Week 13 (H441GL cells [2]): 55.4 ± 10.8 Fold Change
COCCOCCOCCOCCOCCOCCOC(=O)N1CCN(CCCN2c3ccccc3Sc3ccc(Cl)cc32)CC1 [Compound 5-2a, NDP-CO—O—[CH2CH2]6—CH3] | 21.6 µM | 18.7 µM | 6.9 µM | 15.3 µM | 16.2 µM | inhibit cell proliferation | 25.2 µM |  |  | Tumor Size [Fold Change from Week 3 (Mean ± SD, n = 4)] Week 3 (H441GL cells [2]): 1 ± 0 Fold Change; Tumor Size [Fold Change from Week 3 (Mean ± SD, n = 4)] Week 9 (H441GL cells [2]): 28.0 ± 6.5 Fold Change; Tumor Size [Fold Change from Week 3 (Mean ± SD, n = 4)] Week 13 (H441GL cells [2]): 66.2 ± 18.4 Fold Change
COCCOCCOCCOCCOCCOCCOCCOCCOCCOCCOCCOCCOC(=O)N1CCN(CCCN2c3ccccc3Sc3ccc(Cl)cc32)CC1 [Compound 5-3a, NDP-CO—O—[CH2CH2O]12—CH3] | 8.9 µM | 3 µM | 5 µM | 6.5 µM | 11.3 µM | inhibit cell proliferation | 2.7 µM |  |  | Tumor Size [Fold Change from Week 3 (Mean ± SD, n = 4)] Week 3 (H441GL cells [2]): 1 ± 0 Fold Change; Tumor Size [Fold Change from Week 3 (Mean ± SD, n = 4)] Week 9 (H441GL cells [2]): 23.7 ± 3.4 Fold Change; Tumor Size [Fold Change from Week 3 (Mean ± SD, n = 4)] Week 13 (H441GL cells [2]): 53.9 ± 10.1 Fold Change
COCCOCCOCCOCCOCCOCCOCCOCCOCCOCCOCCOCCOCCOCCOCCOCCOC(=O)N1CCN(CCCN2c3ccccc3Sc3ccc(Cl)cc32)CC1 [Compound 5-4a, NDP-CO—O—[CH2CH2O]16—CH3] |  | 3 µM |  |  |  | inhibit cell proliferation | 6.2 µM |  |  | 
COCCOCCOCCOCCOCCOCCOCCOCCOCCOCCOCCOCCOCCOCCOCCOCCOC(=O)N1CCN(CCCN2c3ccccc3Sc3ccc(C(F)(F)F)cc32)CC1 [Compound 5-4b, NDT-CO—O—[CH2CH2O]16—CH3] |  | 17.5 µM |  |  |  | inhibit cell proliferation | 13.8 µM |  |  | 
COCCOCCOCCOCC(=O)N1CCN(CCCN2c3ccccc3Sc3ccc(Cl)cc32)CC1 [Compound 6-1a, NDP-CO—[CH2CH2O]3—CH3] |  |  |  |  |  | inhibit cell proliferation |  | 21.5 µM | 25.8 µM | 
COCCOCCOCCOCC(=O)N1CCN(CCCN2c3ccccc3Sc3ccc(C(F)(F)F)cc32)CC1 [Compound 6-1b, NDT-CO—[CH2CH2O]3—CH3] |  |  |  |  |  | inhibit cell proliferation |  | 16.2 µM | 17 µM | 
COCCOCCOCCOCCOCCOCCOCC(=O)N1CCN(CCCN2c3ccccc3Sc3ccc(Cl)cc32)CC1 [Compound 6-2a, NDP-CO—[CH2CH2O]6—CH3] |  |  |  |  |  | inhibit cell proliferation |  | 25.2 µM | 31.5 µM | 
COCCOCCOCCOCCOCCOCCOCC(=O)N1CCN(CCCN2c3ccccc3Sc3ccc(C(F)(F)F)cc32)CC1 [Compound 6-2b, NDT-CO—[CH2CH2O]6—CH3] |  | 15.5 µM |  |  |  | inhibit cell proliferation | 15.5 µM |  |  | 
COCCOCCOCCOCCOCCOCCOCCOCCOCCOCCOCCOCCOCC(=O)N1CCN(CCCN2c3ccccc3Sc3ccc(Cl)cc32)CC1 [Compound 6-3a, NDP-CO—[CH2CH2O]12—CH3] |  |  |  |  |  | inhibit cell proliferation |  | 24.3 µM | 22.3 µM | 
COCCOCCOCCOCCOCCOCCOCCOCCOCCOCCOCCOCCOCC(=O)N1CCN(CCCN2c3ccccc3Sc3ccc(C(F)(F)F)cc32)CC1 [Compound 6-3b, NDT-CO—[CH2CH2O]12—CH3] |  |  |  |  |  |  | 20.6 µM |  |  | 
COCCOCCOCCOCCOCCOCCOCCOCCOCCOCCOCCOCCOCCOCCOCCOCCOCC(=O)N1CCN(CCCN2c3ccccc3Sc3ccc(Cl)cc32)CC1 [Compound 6-4a, NDP-CO—[CH2CH2O]16—CH3] |  |  |  |  |  |  |  | 39.1 µM |  | 
COCCOCCOCCOCCOCCOCCOCCOCCOCCOCCOCCOCCOCCOCCOCCOCCOCC(=O)N1CCN(CCCN2c3ccccc3Sc3ccc(C(F)(F)F)cc32)CC1 [Compound 6-4b, NDT-CO—[CH2CH2O]16—CH3] |  |  |  |  |  |  |  | 30 µM | 44.2 µM | 
FC(F)(F)c1ccc2c(c1)N(CCCN1CCNCC1)c1ccccc1S2 [NDT, N-desmethyl trifluoperazine, reference compound] |  |  |  |  |  | inhibit cell proliferation |  | 3.9 µM | 6.3 µM | IC50 (H1299): 6.9 µM
